Series [1] has as its system K. pneumoniae ATCC 700603. In words: MIC/MBC microbroth dilution (EUCAST). It is filed as cell-based. The following applies: Klebsiella pneumoniae, ATCC700603. The procedure: (§1) Minimum inhibitory concentrations (MIC values) were obtained using the microbroth dilution method as stated in the EUCAST guidelines. Tests were conducted on cation adjusted Mueller–Hinton broth (caMHB) or agar (caMHA). These were prepared and stored following the manufacturer’s guidelines. Biological organisms were prepared via growth on either Luria–Bertani (LB) or cation adjusted Mueller–Hinton agar plates. These were grown for 24 h at 37 °C, except for Micrococcus luteus where MICs took longer to grow and as a consequence were read after 48 h once a clear positive control could be observed. For the MIC experiment, the bacteria were prepared using the McFarland 0.5 standard and diluted 1 in 100 or 1 in 10 in caMHB following EUCAST and CSLI guidelines for the preparation of bacteria. Testing of the compounds using the microbroth dilution method took place in 96-well plates. Serial 2-fold dilutions of compounds in caMHB covering a range from 256 µg/mL to 0.25 µg/mL were prepared. Bacteria preparations (McFarland) were added to the compound dilutions, further halving the compound concentrations. The plate was then incubated for 18 h at 37 °C. Controls for the MIC experiments included a bacterial growth (positive) control of bacteria and caMHB only and a media only (negative) control. After incubation, the plates were read, whereby the positive control of bacteria was visible and the negative control was clear of contamination. The last clear well, where there is no growth of bacteria, was counted as the MIC value. […] The lowest concentration without any bacterial growth was counted as the MBC value. The following pathogens were used: Pseudomonas aeruginosa NCTC 13437, Escherichia coli NCTC 13353, Bacillus subtilis 168a, Serratia marcescens NCTC 9940, Micrococcus luteus ATCC 10240, Staphylococcus aureus JE2 USA 300, Acinetobacter baumannii ATCC 19606, and Klebsiella pneumoniae ATCC 700603. A concentration range of 256 µg/mL to 0.25 µg/mL of a combination of ciprofloxacin and meropenem against E. coli 25922 was used as an antibiotic control to ensure correct dilution and performance of the assay.
(In general: In broth dilution the organism is exposed to a series of concentrations in liquid medium.)

Another series has as its system S. marcescens NCTC 9940. In words: MIC/MBC microbroth dilution (EUCAST). The series is classed as cell-based. Particulars: Serratia marcescens, NCTC9940. The procedure: as §1
In the next series the test system is S. aureus JE2 USA 300. In words: MIC/MBC microbroth dilution (EUCAST). It is filed as cell-based. The following applies: Staphylococcus aureus, USA300, S. aureus JE2 USA 300. The method, then:
as §1

The test system of a further series is P. aeruginosa NCTC 13437. In words: MIC/MBC microbroth dilution (EUCAST). It is filed as cell-based. Particulars: Pseudomonas aeruginosa, NCTC13437. The procedure:
as §1

The nature of series [2]: Parallel artificial membrane permeability assay (PAMPA). Particulars: PAMPA, pH 7.4, Pe, PBS pH 7.4, 200 µM, 5 h, room temperature. The method, then:
With the high-throughput PAMPA the newly synthesized compounds were tested for their passive permeability through cell membranes without the influence of efflux pumps or transporter proteins. The assay was performed using a Corning® Gentest^TM Precoated PAMPA Plate System (Corning, Glendale, AZ, USA) with 96-well polystyrene plates. The bottom of the acceptor plate consists of a porous membrane, whereby the pores are lined with a lipid–oil–lipid triple layer. Stock solutions of each test compound at 10 mM were prepared in DMSO or methanol and diluted with phosphate-buffered saline (PBS at a pH of 7.4) to a final concentration of 200 µM. […] The donor plate (bottom plate) was filled with the compound solutions, whereby all compounds were tested in quadruplicates. Each well of the acceptor plate (top plate) was filled with PBS buffer. Donor and acceptor plates were combined and incubated at room temperature for 5 h. After that, the plates were separated and 150 µL of each well of both plates were transferred to 96-well UV plates (Greiner Bio-One). Absorption at different wavelengths covering a range from 200 to 300 nm was measured using a SpectraMax M3 UV plate reader. […] The plates were analyzed at the wavelength where the R2 value of the calibration curve was higher than 0.99 [47].
Recovery of compounds from donor and acceptor wells (mass retention) was calculated as shown in the equation below. Data were only accepted when recovery exceeded 70%. The equation is as follows:(3) R=1−[cDt×VD+cAt×VA]/(c0×VD) where

A short description of series [3]: Resazurin-based in vitro cytotoxicity with L-6 cells. The series is classed as cell-based, rat. Particulars: rat. The method, then: Serial drug dilutions of eleven 3-fold dilution steps covering a range from 100 to 0.002 µg/mL were prepared. After 70 h of incubation, the plates were inspected under an inverted microscope to assure growth of the controls and sterile conditions. […] The plates were read with a Spectramax Gemini XS microplate fluorometer (Molecular Devices Cooperation, Sunnyvale, CA, USA) using an excitation wavelength of 536 nm and an emission wavelength of 588 nm. IC50 values were calculated by linear regression from the sigmoidal dose–inhibition curves using SoftmaxPro software Version 8.2.1 (Molecular Devices Cooperation, Sunnyvale, CA, USA). Podophyllotoxin (Sigma P4405) was used as control.
Background: Resazurin is reduced to fluorescent resorufin, in cell work by metabolically active cells.

Another series relates to A. baumannii ATCC 19606. In words: MIC/MBC microbroth dilution (EUCAST). The following applies: Acinetobacter baumannii; for MBC: ATCC19606; for MIC: ATCC19606, read-out: MIC. It is filed as cell-based, Acinetobacter baumannii. The method, then: as §1
A further series concerns E. coli NCTC 13353. In words: MIC/MBC microbroth dilution (EUCAST). It is filed as cell-based, Escherichia coli. Particulars: Escherichia coli; for MBC: NCTC13353; for MIC: NCTC13353, read-out: MIC. The procedure: as §1
The nature of series [4]: Resazurin-based in vitro cytotoxicity with HepG2 cells. The series is classed as cell-based, human. Particulars: HepG2 cells; human hepatocarcinoma cells, 48 h. The procedure: The HepG2 cells were washed with DPBS (Dulbecco’s PBS without calcium and magnesium, Gibco, Cat #21600-044) and trypsinized with trypsin solution in DPBS. Trypsinization was stopped by adding culture medium, and after being stained with Trypan Blue (SORS Ukraine) cells were counted using a counting chamber (Hausser Scientific, Cat #3500). The cell suspension was placed in a falcon tube containing plating medium DMEM/High glucose with 1% fetal bovine serum, 100 units/mL penicillin, and 100 µg/mL streptomycin. Cells at a density of 250,000 cells/mL were seeded in sterile 384-well plates (Greiner Bio-One, Cat #781091) in a volume of […] and incubated at 37 °C and 5% CO2. Serial dilutions of ten 3-fold dilution steps of test and reference compounds covering a range from 100.0 to 0.005 µM were added to the wells, followed by incubation at 37 °C and 5% CO2 for 48 h. Then, resazurin (50 µM final concentration) was added and plates were incubated for another 3 h. The plates were read with a SpectraMax microplate reader (Molecular Devices Cooperation, Sunnyvale, CA, USA)) using an extinction wavelength of 555 nm and an emission wavelength of 570 nm. IC50 values were calculated using GraphPad Prism 9.0 charting software. Doxorubicin (Sigma Aldrich D1515) was used as control.

The test system of the next series is B. subtilis 168a. In words: MIC/MBC microbroth dilution (EUCAST). The following applies: Bacillus subtilis, 168A; for MIC: read-out: MIC. The series is classed as cell-based, Bacillus subtilis. The procedure: as §1
For the next series, the system named is P. falciparum NF54. In words: In vitro microplate assay against P. falciparum NF54 (3H-hypoxanthine incorporation). The series is classed as cell-based, Plasmodium falciparum. Particulars: Plasmodium falciparum, NF54, chloroquine-sensitive strain NF54, erythrocytic stages; read-out: P.f.NF54 IC50. The method, then:
Serial drug dilutions of eleven 3-fold dilution steps covering a range from 100 to 0.002 µg/mL were prepared. […] After 48 h of incubation time, 0.05 mL of ^3H-hypoxanthine (=0.5 µCi) was added to each well of the plate. The plates were incubated for a further 24 h under the same conditions. Plates were then harvested using a BetaplateTM cell harvester (Wallac, Zurich, Switzerland). Red blood cells were transferred onto a glass fiber filter and then washed with distilled aqua demin. The dried filters were inserted into a plastic foil with 10 mL of scintillation fluid and counted in a BetaplateTM liquid scintillation counter (Wallac, Zurich, Switzerland). IC50 values were calculated from sigmoidal inhibition curves by linear regression using Microsoft Excel. […] Louis, MO, USA) was used as control.

Each structure is given as a SMILES string.

For the molecule `O=C(Nc1cccc(N2CCNCC2)c1)c1cccc(C(F)(F)F)c1Oc1ccc(F)cc1` [Compound 56, 2-(4-Fluorophenoxy)-N-[3-(piperazin-1-yl)phenyl]-3-(trifluoromethyl)benzamide], the MBC (as a rule, the lowest tested concentration that kills the bacteria rather than only halting them) in series [1] is > 256 µg/mL; in the series with S. marcescens NCTC 9940, > 256 µg/mL; in the series on S. aureus JE2 USA 300 it was 256 µg/mL; with P. aeruginosa NCTC 13437, > 256 µg/mL; in the series on A. baumannii ATCC 19606, 256 µg/mL; with E. coli NCTC 13353, > 256 µg/mL. Also, the MBC with B. subtilis 168a stood at 256 µg/mL. Besides, the MIC (in general, the least concentration at which growth counts as inhibited) in [1] is > 256 µg/mL; in the series with S. marcescens NCTC 9940 it was 256 µg/mL; in the series with S. aureus JE2 USA 300 it was 256 µg/mL; with P. aeruginosa NCTC 13437, 256 µg/mL; in the series with A. baumannii ATCC 19606, 128 µg/mL; with E. coli NCTC 13353, 256 µg/mL. Also, the MIC in the series on B. subtilis 168a amounted to 128 µg/mL. Besides, the apparent permeability coefficient (Papp) (commonly a coefficient for how fast a substance crosses the barrier) at 5 h, 200 µM in series [2] came to 7.03 ×10⁻⁶ cm/s. Further, inhibition in [3] was half-maximal at 34.2 µM (IC50 at 70 h). For the same molecule, in series [4], the IC50 – broadly, the point on the concentration scale where inhibition reaches its midpoint – at 48 h was 12.7 µM. Moreover, the IC50 with P. falciparum NF54 came to 5.45 µM.

Regarding `O=C(Nc1ccc(N2CCNCC2)cc1)c1cccc(C(F)(F)F)c1Oc1ccc(F)cc1` [Compound 57, 2-(4-Fluorophenoxy)-N-[4-(piperazin-1-yl)phenyl]-3-(trifluoromethyl)benzamide], the MBC is 128 µg/mL in series [1]; > 256 µg/mL in the series with S. marcescens NCTC 9940; 128 µg/mL in the series with S. aureus JE2 USA 300; > 256 µg/mL in the series with P. aeruginosa NCTC 13437; 256 µg/mL in the series with A. baumannii ATCC 19606; > 256 µg/mL in the series with E. coli NCTC 13353. In the series on B. subtilis 168a, the MBC came out at 256 µg/mL. The MIC in [1] was 128 µg/mL; in the series on S. marcescens NCTC 9940 it was > 256 µg/mL; in the series on S. aureus JE2 USA 300 it was 128 µg/mL; with P. aeruginosa NCTC 13437, > 256 µg/mL; with A. baumannii ATCC 19606, 128 µg/mL; in the series on E. coli NCTC 13353 it was > 256 µg/mL. The minimum inhibitory concentration (MIC) in the series with B. subtilis 168a was found to be 128 µg/mL. Moreover, in series [2], the Papp at 5 h, 200 µM worked out at 6.89 ×10⁻⁶ cm/s. In series [3], this molecule yielded an IC50 at 70 h of 37.3 µM. In addition, the IC50 at 48 h in [4] is 10.4 µM. Also, in the series with P. falciparum NF54, the IC50 is 3.15 µM.

With `O=C(Nc1ccc(N2CCNCC2)cc1)c1ccccc1Oc1ccc(F)cc1` [Compound 59, 2-(4-Fluorophenoxy)-N-[4-(piperazin-1-yl)phenyl]benzamide], the MBC in [1] is 128 µg/mL; in the series with S. marcescens NCTC 9940, > 256 µg/mL; with S. aureus JE2 USA 300, 128 µg/mL; in the series with P. aeruginosa NCTC 13437, > 256 µg/mL; with A. baumannii ATCC 19606 it was 256 µg/mL; in the series on E. coli NCTC 13353 it was > 256 µg/mL. Moreover, the MBC with B. subtilis 168a turned out to be 128 µg/mL. Also, the MIC in [1] is 128 µg/mL; in the series with S. marcescens NCTC 9940, > 256 µg/mL; in the series on S. aureus JE2 USA 300, 128 µg/mL; in the series on P. aeruginosa NCTC 13437, > 256 µg/mL; in the series on A. baumannii ATCC 19606 it was 256 µg/mL; in the series on E. coli NCTC 13353, 256 µg/mL. For the same molecule, the MIC in the series on B. subtilis 168a turned out to be 128 µg/mL. In [2], this molecule registered a Papp at 5 h, 200 µM of 14.2 ×10⁻⁶ cm/s. The IC50 at 70 h in series [3] was 25.4 µM. The molecule also registered an IC50 at 48 h in [4] of 38.9 µM. For the same molecule, the IC50 in the series on P. falciparum NF54 was 2.04 µM.

With `O=C(Nc1ccc(N2CCNCC2)cc1)c1cccc(F)c1Oc1ccc(F)cc1` [Compound 60, 3-Fluoro-2-(4-fluorophenoxy)-N-[4-(piperazin-1-yl)phenyl]benzamide], the MBC (in series [1]; in the series with S. marcescens NCTC 9940; with S. aureus JE2 USA 300; with P. aeruginosa NCTC 13437; in the series with A. baumannii ATCC 19606; in the series on E. coli NCTC 13353) was > 256 µg/mL in each case. Also, the MBC in the series on B. subtilis 168a stood at 256 µg/mL. In addition, the MIC (in series [1]; in the series with S. marcescens NCTC 9940; in the series on S. aureus JE2 USA 300; in the series on P. aeruginosa NCTC 13437; with A. baumannii ATCC 19606; with E. coli NCTC 13353) was > 256 µg/mL throughout. In addition, the MIC in the series with B. subtilis 168a amounted to 256 µg/mL. In addition, the Papp at 5 h, 200 µM in [2] came to 11.7 ×10⁻⁶ cm/s. Besides, the 50% inhibitory concentration (IC50) at 70 h in series [3] was found to be 40.8 µM. Also, 26.2 µM corresponded to half-maximal inhibition in [4] (IC50 at 48 h). Moreover, the IC50 in the series on P. falciparum NF54 was found to be 4.7 µM.

For the origin of these results see article PMC12298624, “Anti-Infective Properties, Cytotoxicity, and In Silico ADME Parameters of Novel 4′-(Piperazin-1-yl)benzanilides” (Pharmaceuticals, 2025).
